Converted amounts (≈) assume the structure as drawn.
Columns and labels:
[1] = in vivo; settings: for AUC(0-inf): AUC(0-inf) of D-Methionine; for concentration at 0 h: 0.00 h (predose); for concentration at 0.5 h: 0.50 h; for Cmax: Cmax of D-Methionine
Method: (§1) Twenty-six male Sprague-Dawley rats weighing approximately 200 to 300 g were used for the study. The jugular vein of six animals were cannulated and the rest of the animals were used without any further preparation.
(§2) Dosing was conducted on two occasions. […] The drug was prepared in a suspension formulation in accordance with the present invention. The blood samples (approximately 0.5 mL/sample) were collected from each animal at predose, 15, 30 minutes, 1, 2, 4 and 6 hours postdose into microtainer tubes containing lithium heparin as an anticoagulant. Replacement blood was infused into each animal following each blood draw. […] The drug was prepared in a solution formulation. […] Blood samples were collected from each animal via the orbital sinus at predose, 2, 15, 30 minutes, 1, 2, 4 and 6 hours postdose. Each animal was bled twice. The blood was centrifuged immediately and the resulting plasma in tubes was flash frozen in liquid nitrogen and stored at approximately −70° C. until analysis.
L-Methinione can also be detected under the same HPLC conditions.
Descriptive pharmacokinetic parameters were determined by standard model independent methods (Gibaldi, M. and Perrier, D. Pharmacokinetics, Second Edition, Marcel Dekker, Inc., New York, 1982) based on the mean plasma concentration-time data. The plasma concentrations were rounded to one decimal place before the calculation. Plasma samples with concentrations below the quantifiable limit (BQL) were assigned values of zero for the calculation of mean plasma concentration.

[2] = D-methionine IV 150 mg/kg, PO 150 or 300 mg/kg
Method: as §1, §2

[3] = aqueous solutions; cited from earlier work
[4] = humans, cited from earlier work
[5] = tested on: cisplatin induced hair cell loss; settings: rat model; cited from earlier work
[6] = tested on: oxidative stress-induced ototoxicity and nephrotoxicity; settings: in vivo; cited from earlier work
[7] = male, Sprague-Dawley, rat, plasma, iv, 150 mg/kg, Mean Plasma Concentrations of D-Methionine, IV 150 mg/kg, solution
[8] = male, Sprague-Dawley, rat, plasma, po, 150 mg/kg, PO 150 mg/kg, solution
[9] = male, Sprague-Dawley, rat, plasma, po, 150 mg/kg, PO 150 mg/kg, suspension
[10] = male, Sprague-Dawley, rat, plasma, po, 150 mg/kg, Mean Plasma Concentrations of D-Methionine, PO 150 mg/kg, solution
[11] = male, Sprague-Dawley, rat, plasma, po, 150 mg/kg, Mean Plasma Concentrations of D-Methionine, PO 150 mg/kg, suspension
[12] = male, Sprague-Dawley, rat, plasma, po, 300 mg/kg, PO 300 mg/kg, suspension
[13] = male, Sprague-Dawley, rat, plasma, po, 300 mg/kg, Mean Plasma Concentrations of D-Methionine, PO 300 mg/kg, suspension

## CSCC[C@@H](N)C(=O)O [D-Methionine, D-methionine]
[1]; PO 150 mg/kg, solution, first collection time point
  time point at which Cmax was observed: 30 min
[1]; from CL after IV 150 mg/kg
  first-pass metabolism suggested by systemic clearance: will not be subjected to extensive first-pass metabolism
[1]; male, Sprague-Dawley, rat, plasma, iv, 150 mg/kg
  clearance: 0.557 L/h/kg
[1]; male, Sprague-Dawley, rat, plasma, iv, 150 mg/kg, IV 150 mg/kg, solution
  AUC(0-inf): 269 µg·h/mL
[1]; [7]
  concentration at 0 h: 0 µg/mL
  concentration at 0.25 h: 0.22 µg/mL
  concentration at 0.5 h: 0.106 µg/mL
  concentration at 1 h: 0.064 µg/mL
  concentration at 2 h: 0.0322 µg/mL
  concentration at 4 h: 0.00613 µg/mL
  concentration at 6 h: 0.00145 µg/mL
[1]; male, Sprague-Dawley, rat, plasma, iv, 150 mg/kg, Mean Plasma Concentrations of D-Methionine, IV 150 mg/kg, solution, 0.03 h
  concentration at 0.03 h: 0.471 µg/mL
[1]; male, Sprague-Dawley, rat, plasma, iv, 150 mg/kg, T1/2 (terminal half-life) of D-Methionine, IV 150 mg/kg, solution
  half-life: 54 min
[1]; male, Sprague-Dawley, rat, plasma, oral, 150 mg/kg
  bioavailability: 61.3%
[1]; male, Sprague-Dawley, rat, plasma, po, 150 mg/kg
  Tmax: 30 min
[1]; [8]
  AUC(0-inf): 165 µg·h/mL
  Cmax: 77.1 µg/mL
[1]; [9]
  AUC(0-inf): 120 µg·h/mL
  Cmax: 71.1 µg/mL
[1]; [10]
  concentration at 0 h: 0 µg/mL
  concentration at 0.5 h: 0.0771 µg/mL
  concentration at 1 h: 0.0541 µg/mL
  concentration at 2 h: 0.0417 µg/mL
  concentration at 4 h: 0.00767 µg/mL
  concentration at 6 h: 0.0034 µg/mL
[1]; male, Sprague-Dawley, rat, plasma, po, 150 mg/kg, Mean Plasma Concentrations of D-Methionine, PO 150 mg/kg, solution, 12.00 h
  concentration at 12 h: 0 µg/mL
[1]; [11]
  concentration at 0 h: 0 µg/mL
  concentration at 0.25 h: 0.0695 µg/mL
  concentration at 0.5 h: 0.0711 µg/mL
  concentration at 1 h: 0.0441 µg/mL
  concentration at 2 h: 0.0209 µg/mL
  concentration at 4 h: 0.004 µg/mL
  concentration at 6 h: 0.0017 µg/mL
[1]; male, Sprague-Dawley, rat, plasma, po, 150 mg/kg, T1/2 (terminal half-life) of D-Methionine, PO 150 mg/kg, solution
  half-life: 66 min
[1]; male, Sprague-Dawley, rat, plasma, po, 150 mg/kg, T1/2 of D-Methionine, PO 150 mg/kg, suspension
  half-life: 60 min
[1]; male, Sprague-Dawley, rat, plasma, po, 300 mg/kg
  Tmax: 30 min
[1]; [12]
  AUC(0-inf): 359 µg·h/mL
  Cmax: 175 µg/mL
[1]; [13]
  concentration at 0 h: 0 µg/mL
  concentration at 0.25 h: 0.12 µg/mL
  concentration at 0.5 h: 0.175 µg/mL
  concentration at 1 h: 0.129 µg/mL
  concentration at 2 h: 0.0714 µg/mL
  concentration at 4 h: 0.0227 µg/mL
  concentration at 6 h: 0.0055 µg/mL
[1]; male, Sprague-Dawley, rat, plasma, po, 300 mg/kg, T1/2 of D-Methionine, PO 300 mg/kg, suspension
  half-life: 66 min
[1]; rats, IV and PO
  terminal half-life (conclusion): approximately one hour
[2]
  mortality: no mortality occurred
[3]
  solubility: 50 mg/mL (≈ 335 mM)
[4]
  plasma levels compared with L-methionine: higher plasma levels than L-methionine
[4]; except in L-methionine deprivation
  fraction excreted without conversion to the L-isomer: 60-70%
[5]
  effect on cisplatin damage to the stria vascularis: markedly reduce cisplatin damage to the stria vascularis
  effect on cisplatin induced hair cell loss: prevent cisplatin induced hair cell loss
[6]
  effect on oxidative stress-induced ototoxicity and nephrotoxicity associated with cisplatin: effectively prevent

From patent US20060058390A1 (priority 2004, published 2006)
